Data from patent publication US20250170224A1, “METHODS AND COMPOSITIONS FOR TREATING MICROGLIAL DYSFUNCTION AND IMPROVING METABOLIC DYSFUNCTION” (Ultimate Medicine AG, priority 2021, published 2025).
“Also recorded” adds a separate entry of the source.

Tested on: microglia
Format: in vivo
Protocol: Mice of the aged group in the nontargeted metabolomics analysis were 17-18 months old. Except for nontargeted metabolomics and microbiota profiling, where only male mice were used, all groups included mice from both sexes. Mice were housed under a 12-hour light/12-hour dark cycle and temperatures of 18-23° C. with 40-60% humidity, with food and water given ad libitum. To avoid cage effects, mice from at least three different cages per experimental group were analyzed. […] For modulation of CML in aged animals, 18-month-old SPF housed C57BL/6 mice were treated orally every third day for 10 weeks with vehicle (20% hydroxypropyl-p-cyclodextrin in 1× phosphate-buffered saline (PBS)), 10 mg kg^−1 ellagic acid (EA) or 3,000 U kg^−1 intestinal alkaline phosphatase (IAP). To assess in vivo intestinal permeability, tracer fluorescein isothiocyanate (FITC)-labeled dextran (4 kDa: Sigma-Aldrich) was used. Briefly, mice were deprived of food 4 hours before and both food and water 4 hours after oral gavage using 200 μl of 80 mg ml^−1 FITC-dextran. Blood was collected retro-orbitally after 4 hours and fluorescence intensity was measured on fluorescence plates using an excitation wavelength of 493 nm and an emission wavelength of 518 nm. To assess in vivo intestinal permeability to CML, mice were treated with […] CML (0.36 mM). Blood was collected retro-orbitally immediately before and 4 hours after treatment. CML translocated into the circulation was measured by liquid chromatography-mass spectrometry (LC-MS). All animal experiments were approved by the local administration in Germany (Regierungsprasidium Freiburg) and were performed in accordance with the respective national, federal, and institutional regulations and the guidelines of the Federation of European Laboratory Animal Science Associations.
Mice were lethally anesthetized with ketamine (100 mg kg^−1 body weight) and xylazine (10 mg kg^−1 body weight) followed by perfusion with 1×PBS through the left heart chamber. For histology, brains were kept overnight in 4% paraformaldehyde (PFA). For flow cytometry and magnetic-activated cell sorting (MACS) beads cell sorting, brains were dissected, homogenized and filtered through a […] mesh. […] Myelin was removed from the top layer and the cell pellet was washed once with 1×PBS followed by antibody staining.
Brain specimens from the cortex were first fixed overnight in 3% glutaraldehyde at 4° C., washed with Sorensen buffer, and then transferred to 1% osmium tetroxide for 2 hours at room temperature. Next, samples were dehydrated by a graded series of ethanol (30-100%) followed by 100% propylene oxide, resin/propylene oxide (1:2 (v/v)) and resin/propylene oxide (2:1 (v/v)). Samples were embedded in resin via polymerization for 24 hours at 75° C. Then, 700-nm semithin sections were cut and stained with 2% toluidine blue to define the region of interest for further preparation of 70 nm ultrathin sections using an ultramicrotome (Leica Reichert Ultracut S) after contrasting the sections with uranyl acetate and lead citrate (Leica Reichert Ultrastainer). To assess the mitochondrial phenotype in microglia, images were acquired with a ×7,900 or ×46,000 magnification using a CM100 electron microscope (Philips).
Cell sorting for RT-qPCR and RNA sequencing (RNA-seq) was performed on a MoFlo Astrios (Beckman Coulter; FIG. 7a). Before surface staining, dead cells were excluded by using the Fixable Viability Dye eFluor 780 (1:1,000 dilution; Thermo Fisher Scientific) followed by incubation with Fc receptor blocking antibody CD16/CD32 (1:200 dilution, clone 2.4G2; BD Bioscience). […] To assess microglial cellular reactive oxidative species (ROS), the CellROX DeepRed Reagent ([…]; Thermo Fisher Scientific) was used. To assess mitochondrial activity, Tetramethylrhodamine, Methyl Ester, Perchlorate (50 nM; Thermo Fisher Scientific) and MitoTracker Green FM (20 nM; Thermo Fisher Scientific) were used.

[1] = young-adult mice, i.p. once per day for two weeks

With `N[C@@H](CCCCNCC(=O)O)C(=O)O` [CML, N^6-carboxymethyllysine] the “brain CML concentrations after intraperitoneal injection of CML” value (young-adult SPF mice, targeted metabolomics) was “increased brain CML concentrations”, the “damage to mitochondrial structures in microglia (electron microscopy)” value (young-adult mice treated with CML i.p.) was “caused mitochondrial dysfunction by directly inflicting damage to mitochondrial structures” and the “microglial gene expression (RNA-seq) after intraperitoneal injection” value (young-adult mice, CML versus vehicle) was “upregulated the expression of the ROS-related genes S100a9 and S100A8; also recorded: upregulated the expression of the ROS-related genes, S100a9 and S100A8”. The “cellular ATP stores in microglia” value [1] was “reduced cellular ATP stores”, the “metabolic function (metabolic/mitochondrial activity) of microglia” value [1] was “decreased metabolic activity” and the “recapitulation of the changes found in the microglia of aged mice” value [1] was “partially recapitulate the changes found in the microglia of aged mice”. The “intracellular ROS production / oxidative stress in microglia” value (young-adult mice, i.p. once per day for two weeks, CellROX) was “increased oxidative stress”.
